# Measurements taken from PMC2778948, “A Novel Enediynyl Peptide Inhibitor of Furin That Blocks Processing of proPDGF-A, B and proVEGF-C” (PLoS ONE, 2009).
# Several values for one entry are separate records, joined by “and”; a condition that tells them apart may be missing. Equal values may be shown once. Read-outs that look alike come from different tables or passages of the source.
# How the values were obtained:
# soluble hPC7 = molecular target: T1, soluble hPC7 (Homo sapiens, UniProt Q16549); assay: In vitro PC7 assay with Boc-RVRR-MCA (50 µM), aromatic enediyne compounds; assay type: biochemical
# T1 construct: soluble hPC7 were obtained in partially purified form; made in house
# T1 sequence (Q16549 142-667 limits assumed): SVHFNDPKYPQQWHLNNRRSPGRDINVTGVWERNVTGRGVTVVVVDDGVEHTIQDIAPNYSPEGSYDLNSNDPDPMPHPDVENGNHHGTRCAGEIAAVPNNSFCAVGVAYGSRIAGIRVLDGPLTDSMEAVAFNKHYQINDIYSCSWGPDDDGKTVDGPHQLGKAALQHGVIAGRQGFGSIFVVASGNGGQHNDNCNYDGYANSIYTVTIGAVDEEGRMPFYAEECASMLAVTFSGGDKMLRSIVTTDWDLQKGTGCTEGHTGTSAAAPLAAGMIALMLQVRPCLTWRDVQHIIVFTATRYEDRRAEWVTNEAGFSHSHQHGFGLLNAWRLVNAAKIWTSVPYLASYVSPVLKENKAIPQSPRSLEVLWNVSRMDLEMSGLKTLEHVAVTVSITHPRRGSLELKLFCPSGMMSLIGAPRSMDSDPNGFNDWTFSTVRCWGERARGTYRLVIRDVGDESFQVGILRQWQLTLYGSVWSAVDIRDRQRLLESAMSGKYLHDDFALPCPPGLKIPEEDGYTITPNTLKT
# Source text: (§1) Most aromatic enediyne compounds are chemically highly reactive and can easily generate upon heating reactive bis-radical species via Bergman cyclo-aromatization reaction, [32]. It is a possibility that these reactive intermediates may then react with one or more of the catalytic amino acid residues His, Ser or Asp of PC-enzymes leading to chemical modifications of latter. This notion is supported by several studies involving interactions of amino acids either free or within protein sequences [41]–[46]. Based on this rationale we proposed that such types of molecules may therefore inhibit the protease activities of these enzymes. To test this hypothesis, we first synthesized several aromatic enediyne derivatives and examined in vitro their effects on proteolytic activities of three key members of PC-family enzymes namely furin, PC5 and PC7. In vitro enzyme assay of PCs against Boc-RVRR-MCA substrate (50 µM), in the absence and presence of various synthetic aromatic enediyne compounds (Fig. 1) indicated weak to modest inhibitory activities of these compounds. […] This is the first report of PC-inhibitory activity of an enediyne compound. […]
# (§2) Figure 1 List of synthetic aromatic enediyne derivatives and their effects on protease activities of Proprotein Convertases Furin, PC5 and PC7. […] ND = not determined. […]
# [1] = molecular target: T2, recombinant m (mouse) PC5 (Mus musculus, UniProt Q04592); assay: In vitro PC5 assay with Boc-RVRR-MCA (50 µM), aromatic enediyne compounds; assay type: biochemical
# T2 construct: made in house
# Source text: as §1, §2
# [2] = molecular target: T3, recombinant h (human) furin (Homo sapiens, UniProt P09958); assay: In vitro furin assay with Boc-RVRR-MCA (50 µM), aromatic enediyne compounds; assay type: biochemical; conditions: for inhibition at 100 µM: read-out: Furin inhibition at a single concentration
# T3 construct: pure soluble recombinant h (human) furin; purchased New England Biolabs
# Source text: Most aromatic enediyne compounds are chemically highly reactive and can easily generate upon heating reactive bis-radical species via Bergman cyclo-aromatization reaction, [32]. It is a possibility that these reactive intermediates may then react with one or more of the catalytic amino acid residues His, Ser or Asp of PC-enzymes leading to chemical modifications of latter. This notion is supported by several studies involving interactions of amino acids either free or within protein sequences [41]–[46]. Based on this rationale we proposed that such types of molecules may therefore inhibit the protease activities of these enzymes. To test this hypothesis, we first synthesized several aromatic enediyne derivatives and examined in vitro their effects on proteolytic activities of three key members of PC-family enzymes namely furin, PC5 and PC7. In vitro enzyme assay of PCs against Boc-RVRR-MCA substrate (50 µM), in the absence and presence of various synthetic aromatic enediyne compounds (Fig. 1) indicated weak to modest inhibitory activities of these compounds. […] This is the first report of PC-inhibitory activity of an enediyne compound. This finding prompted us to the idea of incorporating an enediyne function within a peptide sequence which may enhance the potency and selectivity of furin inhibition. To accomplish this, we designed and synthesized an enediynyl amino acid (Eda) derivative with its amino terminal protected by Fmoc (9H-fluoren-9-ylmethoxy carbonyl) group so that it can be directly used in solid phase peptide synthesis.
# Figure 1 List of synthetic aromatic enediyne derivatives and their effects on protease activities of Proprotein Convertases Furin, PC5 and PC7. […] The enzyme assay was carried out by using the fluorogenic peptide substrate Boc-RVRR-MCA (50 µM final concentration) as described in [27]. ND = not determined. TEXT PRINTED IN THE PICTURE: AB-1: MW 438; Furin: 29.9 ± 1.5; PC5: 33% (57 mM); PC7: 30.4 ± 3.5 | AB-2: MW 390; Furin: 10.5 ± 1.8; PC5: 34.5 ± 5.8; PC7: 8.5 ± 1.8 | AB-3: MW 506; Furin: 14.2 ± 1.8; PC5: 17.2± 3.4 | AB-4: MW 258; Furin: 10% at 100 μM | AB-5: MW 259; Furin: 12% at 100 μM | AB-6: MW 780; Furin: 192 ± 6.7 | AB-6-Ni: MW 838; Furin: 160 ± 2.5
# While pure soluble recombinant h (human) furin was obtained commercially from New England Biolabs (Boston, Ma, USA), recombinant m (mouse) PC5 and soluble hPC7 were obtained in partially purified form as described earlier.
# [3] = system: furin-mediated processing of proVEGF-C in CHO cells; assay: Processing of proVEGF-C in CHO cells (western blot); assay type: cell-based; conditions: 50 µM
# Source text: (§3) The result was compared in parallel with the commercial furin inhibitor Dec (decanoyl)-RVRR-cmk (chloromethyl ketone) and the 83-mer synthetic full length prodomain protein of hfurin [49]. […] This was reflected by the strong appearance of 22 kDa proPDGF-A band which was completely absent in the control experiment done in parallel without the presence of any inhibitor. […] The effect was compared in parallel with that done with the known furin inhibitor dec-RVRR-cmk.
# CHO-cells expressing FLAG-labeled proVEGF-C [57] were grown in DMEM medium as described above in the absence and presence of furin-Eda peptide and the furin inhibitor Dec-RVRR-cmk (each 50 µM concentration). The presence of VEGF-C precursor and its C-terminal processed form generated by furin cleavage were assessed by western blot analysis using FLAG antibody while the level of actin (control house keeping protein) was analyzed by immunoblot for quantitation purpose.
# [4] = system: furin-mediated processing of pro-PDGF-B in CHO cells; assay: Processing of proPDGF-B in CHO cells (western blot); assay type: cell-based; conditions: for Block of processing of 31 kDa pro-PDGF-B to 17 kDa mature form: 0.5 to 15 µM
# Method: CHO-cells expressing endogenous proPDGF-B [58] were grown as described above in the absence and presence of various concentrations ranging from 0.5 to 15 µM of either furin-Eda peptide or α1-Pdx, a known furin inhibitor [50]. Western blots were performed for the presence of proPDGF-B and its processed form using PDGF-B specific antibody. In parallel samples were also analyzed for actin levels.
# [5] = system: furin processing of proPDGF-A in CHO cells; assay: Processing of FLAG-tagged proPDGF-A in CHO cells (western blot); assay type: cell-based; conditions: 24 h, FLAG antibody western blot
# Source text: as §3
# CHO-cells expressing FLAG-tagged PDGF-A were grown in DMEM medium as described (43) until the cells achieved ∼80% confluency (24 h), At this stage the medium was removed, cells were washed and grown in fresh buffer supplemented with furin-Eda peptide (50 µM final concentration). The media and cells were harvested after another 24 h cell growth. The collected media were concentrated ∼20-fold using centricon filtration system (Amersham Biosciences Inc, cut off MW = 3 kDa) and subjected to western blot analysis using FLAG antibody for the presence of full length proPDGF-A and its C-terminal mature form obtained following cleavage by endogenous furin present in CHO cells. […] For quantitative purpose, each sample was also analyzed for the presence of actin by immunoblot using a specific antibody.
# T2 sequence (Q04592 117-1877): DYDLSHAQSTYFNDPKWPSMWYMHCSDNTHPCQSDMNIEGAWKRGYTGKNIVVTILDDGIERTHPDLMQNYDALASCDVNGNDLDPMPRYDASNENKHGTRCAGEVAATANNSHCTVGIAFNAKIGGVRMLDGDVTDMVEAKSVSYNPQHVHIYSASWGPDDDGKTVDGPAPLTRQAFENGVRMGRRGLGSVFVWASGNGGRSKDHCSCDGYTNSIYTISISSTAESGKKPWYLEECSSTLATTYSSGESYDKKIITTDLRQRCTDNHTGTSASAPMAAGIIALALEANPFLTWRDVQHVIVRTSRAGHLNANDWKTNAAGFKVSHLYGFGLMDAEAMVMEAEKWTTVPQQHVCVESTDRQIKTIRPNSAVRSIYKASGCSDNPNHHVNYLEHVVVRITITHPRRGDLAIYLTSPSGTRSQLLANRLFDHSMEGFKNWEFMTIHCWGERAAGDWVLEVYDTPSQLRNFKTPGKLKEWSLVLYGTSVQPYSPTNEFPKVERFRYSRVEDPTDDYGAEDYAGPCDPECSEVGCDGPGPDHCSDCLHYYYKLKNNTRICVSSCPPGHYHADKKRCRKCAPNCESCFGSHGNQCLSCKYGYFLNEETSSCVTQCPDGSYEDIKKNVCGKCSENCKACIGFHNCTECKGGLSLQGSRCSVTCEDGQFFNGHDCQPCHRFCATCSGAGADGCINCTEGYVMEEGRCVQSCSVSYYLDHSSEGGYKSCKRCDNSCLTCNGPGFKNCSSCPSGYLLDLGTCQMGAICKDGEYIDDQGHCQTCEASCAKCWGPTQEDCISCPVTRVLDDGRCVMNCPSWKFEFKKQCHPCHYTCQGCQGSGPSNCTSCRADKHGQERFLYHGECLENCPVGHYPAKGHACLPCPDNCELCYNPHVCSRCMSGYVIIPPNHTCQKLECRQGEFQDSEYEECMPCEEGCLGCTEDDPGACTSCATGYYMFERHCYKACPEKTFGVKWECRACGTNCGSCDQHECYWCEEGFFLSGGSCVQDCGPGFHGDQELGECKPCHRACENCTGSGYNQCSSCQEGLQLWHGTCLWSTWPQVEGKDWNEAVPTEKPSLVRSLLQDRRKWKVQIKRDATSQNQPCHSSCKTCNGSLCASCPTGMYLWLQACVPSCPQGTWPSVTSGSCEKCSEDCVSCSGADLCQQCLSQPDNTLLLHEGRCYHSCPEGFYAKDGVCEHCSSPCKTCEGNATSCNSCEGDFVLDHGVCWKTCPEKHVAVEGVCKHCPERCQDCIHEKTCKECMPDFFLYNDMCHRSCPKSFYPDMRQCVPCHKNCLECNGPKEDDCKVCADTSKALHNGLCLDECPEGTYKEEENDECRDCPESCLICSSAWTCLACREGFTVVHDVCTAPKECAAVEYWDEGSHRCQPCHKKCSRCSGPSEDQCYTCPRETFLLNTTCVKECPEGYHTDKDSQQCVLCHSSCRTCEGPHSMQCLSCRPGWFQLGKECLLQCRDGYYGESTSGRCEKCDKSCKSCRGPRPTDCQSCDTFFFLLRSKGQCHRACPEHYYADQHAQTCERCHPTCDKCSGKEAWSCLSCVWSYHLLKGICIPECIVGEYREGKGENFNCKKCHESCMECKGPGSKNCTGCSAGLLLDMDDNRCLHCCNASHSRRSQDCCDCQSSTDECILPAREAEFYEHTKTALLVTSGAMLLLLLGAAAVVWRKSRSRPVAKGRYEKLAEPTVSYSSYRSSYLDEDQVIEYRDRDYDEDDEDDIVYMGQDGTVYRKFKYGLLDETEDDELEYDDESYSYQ
# T3 sequence (P09958 108-715 limits assumed): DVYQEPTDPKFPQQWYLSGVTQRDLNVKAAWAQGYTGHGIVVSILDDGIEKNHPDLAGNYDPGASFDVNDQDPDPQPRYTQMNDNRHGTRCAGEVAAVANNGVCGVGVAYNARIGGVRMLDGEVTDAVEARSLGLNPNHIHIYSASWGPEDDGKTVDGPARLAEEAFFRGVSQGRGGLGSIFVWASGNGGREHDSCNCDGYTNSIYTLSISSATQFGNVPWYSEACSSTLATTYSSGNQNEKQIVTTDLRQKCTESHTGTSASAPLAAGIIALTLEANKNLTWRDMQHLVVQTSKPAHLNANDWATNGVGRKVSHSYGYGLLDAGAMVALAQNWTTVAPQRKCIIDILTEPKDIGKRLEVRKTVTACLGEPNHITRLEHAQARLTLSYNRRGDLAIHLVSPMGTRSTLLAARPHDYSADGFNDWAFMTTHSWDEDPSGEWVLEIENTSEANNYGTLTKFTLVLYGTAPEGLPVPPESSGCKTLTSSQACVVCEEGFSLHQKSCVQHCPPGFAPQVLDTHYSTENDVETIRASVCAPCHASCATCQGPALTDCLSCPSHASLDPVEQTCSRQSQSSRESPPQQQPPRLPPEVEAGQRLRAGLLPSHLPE
molecule,measurement,setting,value
C1#Cc2ccccc2C#CCN(Cc2ccccc2)CCN(Cc2ccccc2)C1 [AB-2],IC50,soluble hPC7,8.5 µM
same,IC50,"[1]; IC50 for inhibition of PC5, Boc-RVRR-MCA 50 µM final concentration",34 µM and 34.5 µM
same,IC50,[2],10.5 µM
Cc1ccc(S(=O)(=O)N2CC#Cc3ccccc3C#CCN(S(=O)(=O)c3ccc(C)cc3)c3cccc2c3)cc1 [AB-3],Effect on PC7 protease activity,soluble hPC7; Boc-RVRR-MCA 50 µM,minor protease activating effect
same,IC50,"[1]; read-out: IC50 for inhibition of PC5, Boc-RVRR-MCA 50 µM final concentration",17.2 ± 3.4 µM
same,IC50,"[2]; read-out: IC50 for inhibition of furin, Boc-RVRR-MCA 50 µM final concentration",14.2 ± 1.8 µM
C1#Cc2ccccc2C#CCNc2cccc(c2)NC1 [AB-4],inhibition at 100 µM,[2],10%
C1#Cc2ccccc2C#CCNc2cccc(n2)NC1 [AB-5],inhibition at 100 µM,[2],12%
C1#Cc2ccccc2C#CCN(Cc2ccccc2)CCN(Cc2ccccc2)CC#Cc2ccccc2C#CCN(Cc2ccccc2)CCN(Cc2ccccc2)C1 [AB-6],IC50,[2],192 ± 6.7 µM
CC(C)[C@H](NC(=O)[C@H](CCC(N)=O)NC(=O)[C@@H](N)CCC(N)=O)C(=O)N[C@@H](C)C(=O)N[C@@H](CCCCN)C(=O)N[C@@H](CCCNC(=N)N)C(=O)N[C@@H](CCCNC(=N)N)C(=O)N[C@H](C(=O)N[C@@H](CCCCN)C(=O)N[C@@H](CCCNC(=N)N)C(=O)NCCC#Cc1ccccc1C#CCCC(=O)N[C@@H](CC(=O)O)C(=O)N[C@H](C(=O)N[C@@H](Cc1ccc(O)cc1)C(=O)N[C@@H](CCC(N)=O)C(=O)N[C@@H](CCC(=O)O)C(N)=O)C(C)C)[C@@H](C)O [furin-Eda-peptide (II)],Block of cleavage of 50 kDa proVEGF-C to 28 kDa mature VEGF-C,[3],block significantly
same,Effect on formation of 22 kDa intermediate form of PDGF-B,[4],neither inhibitors displayed any effect
same,Block of processing of 31 kDa pro-PDGF-B to 17 kDa mature form,[4],block furin-mediated processing
same,Block of cleavage of 22 kDa pro-PDGF-A to 14 kDa mature PDGF-A,[5]; 50 µM,block efficiently
"Dec (decanoyl)-RVRR-cmk (chloromethyl ketone) [Dec-RVRR-cmk, reference compound]",Block of cleavage of 50 kDa proVEGF-C to 28 kDa mature VEGF-C,[3],block significantly
same,Block of cleavage of 22 kDa pro-PDGF-A to 14 kDa mature PDGF-A,[5]; 10 and 50 µM,block efficiently
"α1-Pdx: bioengineered protein, known potent inhibitor of furin",Effect on formation of 22 kDa intermediate form of PDGF-B,[4],neither inhibitors displayed any effect
same,Block of processing of 31 kDa pro-PDGF-B to 17 kDa mature form,[4],highly comparable
